Source: patent US4973675A, “Hybrid nitrosoureidoanthracyclines having antitumor activity” (University of Tennessee Research Center, priority 1989, dated 1990)
Entries after “also recorded” stand apart in the source; their conditions may differ.

Experiments:
[1] = test system: murine P388/adriamycin-resistant leukemia; assay: In vivo antitumor activity vs. murine P388/adriamycin-resistant leukemia (P388/ADR); conditions: for Median increase in lifespan / Net mean percent weight change, day 7 / Long-term survivors / Range of death (dying animals): ip; for Long-term survivors: sacrifice day 60
Source text: Assays were run essentially according to the established protocols of the U.S. National Cancer Institute (Geran et al., 1972 "Protocols for Screening Chemical Agents and Natural Products Against Animal Tumors and Other Biological Systems" (3rd Ed.), Cancer Chemotherapy Rep. [3]33, 1-103.), with the test agent given at 3-5 incremental dose levels in each screening experiment and with median survival of treated groups referenced against data for untreated controls.
*B6D2F1 males; 1 × 10^6 tumor cell inoculum ip day 0; treatment

[2] = test system: murine L1210 leukemia cells; assay: Clonogenic assay with cultured murine L1210 leukemia cells, 1 h drug exposure (LD90); type: cell-based
Method: (§1) Culture and bioassay conditions were as described in Cancer Chemotherapy Pharmacology 20:277 (1987) "Comparative Effects of Adriamycin and DNA-nonbinding Analogues on DNA, RNA, and Protein Synthesis in Vitro", Israel et al., except that cell counts were determined by hemocytometer rather than by automated cell counting.
+Dose killing 90% of clonogens, 1hr. drug exposure.

red blood cells = assay: Hematotoxicity study in non-tumor-bearing animals, red blood cell count; type: in vivo, mice; conditions: 3 dose levels
Source text: Clinically and in laboratory animals, anthracycline antibiotics and chloroethylnitrosourea alkylating agents currently used in medical oncology are known to be strongly myelosuppressive, with the effects of the alkylating agents on suppression of bone marrow activity being particularly profound and long-lasting.

calf thymus DNA = assay: Interstrand cross-link formation in isolated calf thymus DNA, ethidium bromide fluorescence assay; type: biochemical
Method: To further assess the alkylation potential of AD 312, the ability of this agent to form interstrand cross-links in isolated calf thymus DNA was examined using an ethidium bromide fluorescence assay. […] In one set of experiments, DNA was exposed briefly to AD 312 (30 minutes at 50° C.) before being reisolated by precipitation with ethanol. […] Such continuing reaction reflects the presence in the DNA of long-lived precursors of crosslinks similar to what has been found for the classical antitumor chloroethylnitrosoureas. […] It appears, therefore, that AD 312 induces DNA interstrand crosslinks via an initial adduct at O^6 -guanine.

[3] = test system: human CEM leukemic lymphocytes; assay: Growth inhibition of human CEM leukemic lymphocyte suspension cultures, 48 h continuous drug exposure (ID50); type: cell-based
Method: as §1

[4] = P388/ADR, single dose 40.5 mg/kg day 1

COc1cccc2c1C(=O)c1c(O)c3c(c(O)c1C2=O)C[C@@](O)(C(C)=O)C[C@@H]3O[C@H]1C[C@H](NC(=O)N(CCCl)N=O)[C@H](O)[C@H](C)O1 [AD 312, 2-chloroethylnitrosoureidodaunorubicin]
curative rate ([1]; P388/ADR, once daily for 4 days, 15.0 to 20.0 mg/kg/day (3 dose levels)): 100%
dose toxicity [1, 4]: nontoxic
therapeutic effect [1, 4]: significant therapeutic effect
Median increase in lifespan ([1]; 15.0 mg/kg qd 1-4): > +500%
Net mean percent weight change, day 7 ([1]; 15.0 mg/kg qd 1-4): -4%
Long-term survivors ([1]; 15.0 mg/kg qd 1-4): 7/7
Median increase in lifespan ([1]; 17.5 mg/kg qd 1-4): > +500%
Net mean percent weight change, day 7 ([1]; 17.5 mg/kg qd 1-4): -9%
Long-term survivors ([1]; 17.5 mg/kg qd 1-4): 7/7
Median increase in lifespan ([1]; 20.0 mg/kg qd 1-4): > +500%
Net mean percent weight change, day 7 ([1]; 20.0 mg/kg qd 1-4): -9%
Long-term survivors ([1]; 20.0 mg/kg qd 1-4): 7/7
Median increase in lifespan ([1]; 27.0 mg/kg d1 only): > +500%
Net mean percent weight change, day 7 ([1]; 27.0 mg/kg d1 only): +5%
Range of death (dying animals) ([1]; 27.0 mg/kg d1 only): 19,26 days
Long-term survivors ([1]; 27.0 mg/kg d1 only): 5/7
Median increase in lifespan ([1]; 40.5 mg/kg d1 only): > +500%
Net mean percent weight change, day 7 ([1]; 40.5 mg/kg d1 only): -0.5%
Range of death (dying animals) ([1]; 40.5 mg/kg d1 only): 13,27 days
Long-term survivors ([1]; 40.5 mg/kg d1 only): 5/7
clonogenic cell kill ([2]; L1210, 1 hour exposure): most potent of the six agents compared
IC90 ([2]; Mus musculus, L1210, 1 hr drug exposure, read-out: L1210 LD90 (dose killing 90% of clonogens)): 260 nM
change in red blood cell counts (red blood cells): No significant change in red blood cells counts
interstrand crosslink formation (calf thymus DNA; 10 mM, 4 hours at 50° C.): appreciable interstrand crosslinks
continued crosslink formation after drug removal (calf thymus DNA; 30 min exposure at 50° C., DNA reisolated, further incubation at 50° C.): crosslinks continued to form for several hours
effect of O^6-alkylguanine-DNA alkyltransferase on crosslink formation (calf thymus DNA; enzyme added to AD 312-treated DNA): can block the protracted second step in crosslink formation
growth inhibitory activity ([3]; CEM in vitro): moderate to marked growth inhibitory activity; also recorded: somewhat less active
IC50 ([3]; Homo sapiens, Lymphocyte, CEM, 48 hr continuous drug exposure (Table 2), read-out: ID50 (the source's name)): 90 nM
